28 compounds from ChEMBL document CHEMBL1135889, “Novel 4-anilinoquinazolines with C-7 basic side chains: design and structure activity relationship of a series of potent, orally active, VEGF receptor tyrosine kinase inhibitors” (J Med Chem, 2002) can be followed below.

The subject of one data set is HUVEC. Nature of the data set: Inhibition of basal unstimulated growth of human endothelial cell. It is filed as functional, cell-based.
The target of data set [1] is Vascular endothelial growth factor receptor 2 (Homo sapiens, UniProt P35968). Briefly: Inhibition of vascular endothelial growth factor receptor 2 kinase activity […].
In data set [2] the target is Fibroblast growth factor receptor 1 (Homo sapiens, UniProt P11362).
Description: Inhibition fibroblast growth factor receptor TK kinase activity at a concentration of 2 uM
For a further data set, the species on record is Mus musculus. Briefly: Binding affinity of serum protein in mouse. It is filed as functional, organism-based.
A further data set is filed under the species Rattus norvegicus. Nature of the data set: Binding affinity to serum protein in rat. Type of data set: functional.
Data set [3] can be described thus: Plasma levels following administration of 100 mg/Kg perorally and concentration in plasma 24 hr after administration. To be noted: po, read-out: Plasma level. It is filed as ADME, cell-free.
Data set [4] can be described thus: Plasma levels following administration of 100 mg/Kg perorally and concentration in plasma 6 hr after administration. Type of data set: ADME, cell-free. To be noted: po, read-out: Plasma level.
In data set [5] the target is Epidermal growth factor receptor (Homo sapiens, UniProt P00533). Briefly: Inhibition of epidermal growth factor receptor kinase activity […] of ATP.
Data set [6] addresses Vascular endothelial growth factor receptor (Homo sapiens, UniProt P17948+P35916+P35968). Briefly: Inhibition of human endothelial cell growth stimulate by vascular endothelial growth factor.
A short description of data set [7]: Plasma levels following administration of 50 mg/Kg perorally and concentration in plasma 24 hr after administration. Type of data set: ADME, cell-free. The note with it: po, read-out: Plasma level.
Data set [8] can be described thus: solubility was determined using free base at pH 7. It is filed as physicochemical. To be noted: buffer.
Data set [9] can be described thus: pKa value at a pH of […].value ranges from […]-[…]. It is filed as physicochemical. The note with it: pH 7.4.
The target in data set [10] is Vascular endothelial growth factor receptor 1 (Homo sapiens, UniProt P17948). Nature of the data set: Inhibition of fms-like tyrosine kinase receptor (Flt-1) kinase activity […] of ATP.
A short description of data set [11]: Plasma levels following administration of 50 mg/Kg perorally and concentration in plasma 6 hr after administration. It is filed as ADME, cell-free. The note with it: po, read-out: Plasma level.
Another data set can be described thus: physchem. To be noted: octanol/water, pH 7.4.

Sequence of Epidermal growth factor receptor (P00533 whole entry): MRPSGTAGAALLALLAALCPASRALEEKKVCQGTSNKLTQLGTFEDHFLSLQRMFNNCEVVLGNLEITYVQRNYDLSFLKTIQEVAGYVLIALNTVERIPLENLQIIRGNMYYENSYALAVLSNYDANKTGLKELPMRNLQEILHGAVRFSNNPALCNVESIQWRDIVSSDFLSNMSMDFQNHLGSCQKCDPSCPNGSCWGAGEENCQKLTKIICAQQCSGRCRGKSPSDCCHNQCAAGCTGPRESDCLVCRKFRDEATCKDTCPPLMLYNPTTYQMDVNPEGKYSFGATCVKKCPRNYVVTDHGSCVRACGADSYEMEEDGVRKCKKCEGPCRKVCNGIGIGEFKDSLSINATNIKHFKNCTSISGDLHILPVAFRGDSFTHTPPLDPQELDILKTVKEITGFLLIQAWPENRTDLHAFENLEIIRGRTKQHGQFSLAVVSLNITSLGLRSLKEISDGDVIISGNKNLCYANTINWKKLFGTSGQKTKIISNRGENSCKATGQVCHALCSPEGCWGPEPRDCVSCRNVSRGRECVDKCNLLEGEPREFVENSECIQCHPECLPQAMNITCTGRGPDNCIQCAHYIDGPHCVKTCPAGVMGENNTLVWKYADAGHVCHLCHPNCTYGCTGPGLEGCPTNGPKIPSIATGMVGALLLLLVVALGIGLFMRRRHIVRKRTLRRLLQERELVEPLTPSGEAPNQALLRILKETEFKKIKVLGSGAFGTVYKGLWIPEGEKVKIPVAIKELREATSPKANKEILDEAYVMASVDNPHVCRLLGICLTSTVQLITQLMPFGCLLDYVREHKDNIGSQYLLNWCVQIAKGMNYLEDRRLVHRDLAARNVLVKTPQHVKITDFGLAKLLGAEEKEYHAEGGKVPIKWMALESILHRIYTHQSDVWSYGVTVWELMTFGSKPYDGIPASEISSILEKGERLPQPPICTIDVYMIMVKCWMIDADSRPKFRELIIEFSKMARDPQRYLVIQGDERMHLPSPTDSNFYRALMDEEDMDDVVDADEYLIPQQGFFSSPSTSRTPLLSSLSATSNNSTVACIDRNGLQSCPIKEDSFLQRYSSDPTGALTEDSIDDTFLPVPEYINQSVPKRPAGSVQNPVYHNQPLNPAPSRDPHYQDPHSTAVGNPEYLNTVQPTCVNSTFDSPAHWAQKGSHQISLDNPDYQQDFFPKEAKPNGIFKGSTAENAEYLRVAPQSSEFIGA
Sequence of Vascular endothelial growth factor receptor 1 (P17948 whole entry): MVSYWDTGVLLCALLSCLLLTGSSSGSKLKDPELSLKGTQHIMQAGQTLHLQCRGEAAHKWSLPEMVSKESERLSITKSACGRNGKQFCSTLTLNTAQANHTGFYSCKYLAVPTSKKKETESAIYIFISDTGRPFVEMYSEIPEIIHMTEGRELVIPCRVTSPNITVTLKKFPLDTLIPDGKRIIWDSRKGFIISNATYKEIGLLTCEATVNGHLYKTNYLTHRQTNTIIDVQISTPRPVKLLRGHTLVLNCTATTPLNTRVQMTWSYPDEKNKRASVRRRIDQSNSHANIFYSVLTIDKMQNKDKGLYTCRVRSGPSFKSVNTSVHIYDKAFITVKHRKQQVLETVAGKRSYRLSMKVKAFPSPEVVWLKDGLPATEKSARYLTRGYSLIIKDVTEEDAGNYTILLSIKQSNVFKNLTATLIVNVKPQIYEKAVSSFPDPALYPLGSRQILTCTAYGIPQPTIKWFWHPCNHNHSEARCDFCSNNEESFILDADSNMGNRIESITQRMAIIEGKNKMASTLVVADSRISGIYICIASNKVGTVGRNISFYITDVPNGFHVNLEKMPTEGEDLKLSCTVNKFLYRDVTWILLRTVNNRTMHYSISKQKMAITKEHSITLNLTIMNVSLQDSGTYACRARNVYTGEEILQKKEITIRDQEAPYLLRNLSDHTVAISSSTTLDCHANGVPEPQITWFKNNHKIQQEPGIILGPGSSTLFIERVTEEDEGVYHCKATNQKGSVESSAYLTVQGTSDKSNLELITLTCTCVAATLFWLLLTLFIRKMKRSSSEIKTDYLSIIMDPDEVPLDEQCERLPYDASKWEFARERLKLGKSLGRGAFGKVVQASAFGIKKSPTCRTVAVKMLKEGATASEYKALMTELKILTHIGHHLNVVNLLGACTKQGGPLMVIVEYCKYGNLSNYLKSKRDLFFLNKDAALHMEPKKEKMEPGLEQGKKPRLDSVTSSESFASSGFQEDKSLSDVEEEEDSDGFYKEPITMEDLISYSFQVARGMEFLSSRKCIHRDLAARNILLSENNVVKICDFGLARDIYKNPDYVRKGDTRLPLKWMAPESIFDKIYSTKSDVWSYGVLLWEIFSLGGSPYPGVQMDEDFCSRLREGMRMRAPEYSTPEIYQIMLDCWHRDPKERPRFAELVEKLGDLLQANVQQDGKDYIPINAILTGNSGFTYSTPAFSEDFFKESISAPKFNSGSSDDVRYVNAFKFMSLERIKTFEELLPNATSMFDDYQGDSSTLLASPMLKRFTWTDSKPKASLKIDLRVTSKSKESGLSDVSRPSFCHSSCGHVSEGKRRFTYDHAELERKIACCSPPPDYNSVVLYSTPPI
Sequence of Fibroblast growth factor receptor 1 (P11362 whole entry): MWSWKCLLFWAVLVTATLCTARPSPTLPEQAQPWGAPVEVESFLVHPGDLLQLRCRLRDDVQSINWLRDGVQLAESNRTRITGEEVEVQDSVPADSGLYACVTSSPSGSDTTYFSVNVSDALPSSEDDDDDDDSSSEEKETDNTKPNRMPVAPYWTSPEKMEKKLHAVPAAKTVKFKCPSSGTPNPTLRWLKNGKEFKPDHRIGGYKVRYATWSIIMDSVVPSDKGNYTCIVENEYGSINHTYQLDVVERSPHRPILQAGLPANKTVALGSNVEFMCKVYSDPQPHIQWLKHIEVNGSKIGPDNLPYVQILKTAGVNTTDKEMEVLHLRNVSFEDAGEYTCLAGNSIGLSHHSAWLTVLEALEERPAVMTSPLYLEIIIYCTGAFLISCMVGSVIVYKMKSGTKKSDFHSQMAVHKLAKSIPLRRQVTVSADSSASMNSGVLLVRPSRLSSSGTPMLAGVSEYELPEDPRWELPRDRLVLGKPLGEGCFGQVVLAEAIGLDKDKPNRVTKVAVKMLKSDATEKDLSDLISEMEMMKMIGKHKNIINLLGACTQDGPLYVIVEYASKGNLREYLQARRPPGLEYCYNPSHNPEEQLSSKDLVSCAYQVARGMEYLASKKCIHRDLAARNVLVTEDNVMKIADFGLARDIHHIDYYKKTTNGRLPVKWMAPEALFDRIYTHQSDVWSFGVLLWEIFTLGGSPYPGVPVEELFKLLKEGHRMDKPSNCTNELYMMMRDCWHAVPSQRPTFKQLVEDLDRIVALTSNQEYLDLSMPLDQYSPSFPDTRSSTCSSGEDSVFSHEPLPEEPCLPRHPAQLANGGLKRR
Sequence of Vascular endothelial growth factor receptor 2 (P35968 whole entry): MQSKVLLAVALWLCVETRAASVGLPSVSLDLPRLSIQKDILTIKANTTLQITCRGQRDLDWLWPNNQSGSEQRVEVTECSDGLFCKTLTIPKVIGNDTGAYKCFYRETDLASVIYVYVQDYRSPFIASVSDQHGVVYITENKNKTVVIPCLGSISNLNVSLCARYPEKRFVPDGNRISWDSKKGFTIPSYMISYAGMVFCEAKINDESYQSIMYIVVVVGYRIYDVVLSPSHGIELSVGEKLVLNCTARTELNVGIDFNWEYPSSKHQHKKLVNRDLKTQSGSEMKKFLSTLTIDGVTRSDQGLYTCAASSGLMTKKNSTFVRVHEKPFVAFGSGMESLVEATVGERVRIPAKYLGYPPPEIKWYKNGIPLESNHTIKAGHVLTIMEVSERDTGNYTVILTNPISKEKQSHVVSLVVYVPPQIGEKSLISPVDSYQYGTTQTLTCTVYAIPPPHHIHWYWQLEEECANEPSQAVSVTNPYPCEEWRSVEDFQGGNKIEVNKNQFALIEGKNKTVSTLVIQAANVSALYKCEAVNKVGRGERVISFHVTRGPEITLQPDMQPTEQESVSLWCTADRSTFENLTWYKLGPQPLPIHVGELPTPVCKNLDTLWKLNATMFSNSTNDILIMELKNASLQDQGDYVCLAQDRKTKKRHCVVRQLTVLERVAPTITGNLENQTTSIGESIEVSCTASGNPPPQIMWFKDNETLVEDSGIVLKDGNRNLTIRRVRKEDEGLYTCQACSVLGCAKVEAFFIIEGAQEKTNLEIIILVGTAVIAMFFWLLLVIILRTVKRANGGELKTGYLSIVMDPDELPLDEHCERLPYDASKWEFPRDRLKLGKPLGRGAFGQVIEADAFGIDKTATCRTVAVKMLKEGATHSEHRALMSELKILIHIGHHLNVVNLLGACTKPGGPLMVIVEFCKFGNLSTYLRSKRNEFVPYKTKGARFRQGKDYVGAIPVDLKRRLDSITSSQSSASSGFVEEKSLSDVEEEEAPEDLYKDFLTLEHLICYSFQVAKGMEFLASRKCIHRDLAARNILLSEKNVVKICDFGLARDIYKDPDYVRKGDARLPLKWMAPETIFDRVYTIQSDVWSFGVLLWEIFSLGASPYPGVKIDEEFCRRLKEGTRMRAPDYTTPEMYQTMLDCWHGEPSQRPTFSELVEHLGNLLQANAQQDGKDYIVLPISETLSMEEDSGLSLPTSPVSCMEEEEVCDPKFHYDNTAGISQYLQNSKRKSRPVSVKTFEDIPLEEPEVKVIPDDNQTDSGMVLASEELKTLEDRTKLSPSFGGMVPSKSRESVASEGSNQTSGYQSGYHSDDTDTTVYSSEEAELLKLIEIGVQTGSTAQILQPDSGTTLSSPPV

On to `COc1cc2c(Nc3ccc(Br)cc3F)ncnc2cc1OCCC1CCNCC1`, for which the half-inhibitory concentration (IC50) (commonly the concentration that inhibits the measured activity by half) in the data set on HUVEC was 3000 nM; in data set [1], 40 nM; in [2], 2700 nM.
Consider `COc1cc2/c(=N/c3ccc(Br)cc3F)nc[nH]c2cc1OCC1CCN(C)CC1`, for which the SPB stood at 96% in the data set filed under Mus musculus and 90% in the data set listed under Rattus norvegicus.
Consider `COc1cc2c(Nc3ccc(Cl)cc3F)ncnc2cc1OCCN1CCOCC1`, for which the concentration at 24 h in data set [3] came out at 500 nM. The concentration at 6 h in data set [4] was 12000 nM. For the same compound, the results for the IC50 (in data set [5]; in the data set on HUVEC; in [6]) were 400 nM, 5000 nM and 300 nM, respectively.
As to `COc1cc2c(Nc3ccc(Cl)cc3F)ncnc2cc1OCCCN1CCN(C)CC1.Cl`, the concentration at 24 h in data set [7] was 3000 nM. The solubility (usually the concentration that dissolves in the medium under given conditions) in data set [8] is 60 µM. The pKa (usually the negative logarithm of the acid dissociation constant) in [9] was determined as 7.9. Moreover, the IC50 in data set [5] was found to be 75 nM; in [10], 600 nM; with HUVEC, 5000 nM; in data set [6], 50 nM; in data set [1] it was 20 nM; in [2], 2100 nM. Besides, the concentration at 6 h in [11] was determined as 5000 nM. Also, in “physchem”, the logD (as a rule, lipophilicity at a set pH, counting ionised and neutral species) is 2.4.
With `COc1cc2c(Nc3ccc(Cl)cc3F)ncnc2cc1OC/C=C/CN1CCCC1.Cl`, the IC50 in data set [5] was 90 nM; in data set [10] it was 750 nM; in the data set with HUVEC it was 1000 nM; in data set [6] it was 40 nM; in data set [1], 40 nM; in data set [2], 1900 nM.
As for `COc1cc2c(Nc3ccc(Cl)cc3F)ncnc2cc1OCC1CCNCC1.Cl`, the half-inhibitory concentration (IC50) came to 300 nM in [5]; 1000 nM in data set [10]; 5000 nM in the data set on HUVEC; 60 nM in data set [6]; 50 nM in [1]; 5000 nM in data set [2].
`COc1cc2c(Nc3ccc(Br)cc3F)ncnc2cc1OCCC1CCN(C)CC1`: in [7], the concentration at 24 h amounted to 2000 nM. Besides, the figures for the IC50 (with HUVEC; in [1]; in data set [2]) were 3000 nM, 6 nM and 2100 nM, respectively. For the same compound, the concentration at 6 h in [11] was found to be 3000 nM.
As to `COc1cc2c(Nc3ccc(Cl)cc3F)ncnc2cc1OCCC1CCN(C)CC1`, the IC50 in [5] came to 300 nM; in [10], 500 nM; in the data set with HUVEC, 3000 nM; in [6] it was 70 nM; in data set [1], 55 nM; in data set [2], 4100 nM.
Consider `COc1cc2c(Nc3ccc(Br)cc3F)ncnc2cc1OC[C@H]1CCCN(C)C1`, for which the IC50 in [10] was 500 nM; in the data set with HUVEC, 1000 nM; in data set [6] it was 40 nM; in data set [1] it was 10 nM; in data set [2], 5000 nM.
As for `COc1cc2c(Nc3c(F)cc(Cl)cc3F)ncnc2cc1OCC1CCN(C)CC1`, the IC50 was above 5000 nM with HUVEC, 25 nM in data set [1] and 1700 nM in data set [2].
On to `COc1cc2c(Nc3ccc(C)cc3F)ncnc2cc1OCC1CCN(C)CC1`, for which the IC50 in data set [5] was 1000 nM; in data set [10] it was 500 nM; in the data set on HUVEC it was above 5000 nM; in data set [6], 65 nM; in [1], 25 nM; in [2], 13500 nM.
For the compound `COc1cc2c(Nc3cc(O)c(Cl)cc3F)ncnc2cc1OCC1CCN(C)CC1.Cl`, the IC50 amounted to 100 nM in [5]; 20 nM in [10]; 500 nM with HUVEC; 3 nM in data set [6]; 8 nM in [1]; 900 nM in data set [2].
For the compound `COc1cc2c(Nc3ccc(Cl)cc3F)ncnc2cc1OCCN(C)c1ccncc1`, the concentration at 24 h in data set [3] is 2000 nM. Further, in data set [4], the concentration at 6 h turned out to be 4600 nM. For the same compound, the IC50 was 300 nM in data set [5], 5000 nM with HUVEC and 200 nM in data set [6].
`COc1cc2c(Nc3ccc(Cl)cc3F)ncnc2cc1OCCN1CCN(C)CC1`: the IC50 stood at 200 nM in data set [5]; 300 nM in data set [10]; 10000 nM in the data set with HUVEC; 100 nM in data set [6]; 30 nM in data set [1]; 8000 nM in data set [2].
As for `COc1cc2c(Nc3ccc(Cl)cc3F)ncnc2cc1OCC1CCN(C)CC1.Cl`, the IC50 in data set [10] was determined as 2000 nM; in the data set with HUVEC, 5000 nM; in data set [6] it was 50 nM; in data set [1], 15 nM; in data set [2], 4300 nM.
In the case of `COc1cc2c(Nc3ccc(Cl)cc3F)ncnc2cc1OCCCN1CCCC1.Cl`, the IC50 in data set [10] came to 200 nM; in the data set with HUVEC it was 5000 nM; in data set [6], 8 nM; in data set [1], 30 nM; in data set [2] it was 4200 nM.
On to `COc1cc2c(Nc3c(F)cc(Cl)cc3F)ncnc2cc1OCC1CCNCC1`, for which the IC50 in data set [5] is 500 nM; in data set [10], 450 nM; in the data set on HUVEC it was above 1000 nM; in data set [6], 100 nM; in data set [1], 40 nM; in [2], 2500 nM.
With `COc1cc2c(Nc3ccc(Br)cc3F)ncnc2cc1OC[C@@H]1CCCN(C)C1`, the concentration at 24 h in data set [7] was 2500 nM. The IC50 in data set [10] was found to be 500 nM; in the data set on HUVEC, 10000 nM; in data set [6], 60 nM; in [1] it was 1 nM; in data set [2], 1800 nM. In addition, the concentration at 6 h in [11] worked out at 5500 nM.
Consider `COc1cc2c(Nc3ccc(Br)cc3F)ncnc2cc1OC/C=C/CN1CCCC1.Cl`, for which the IC50 was determined as 100 nM in data set [5]; 650 nM in [10]; 5000 nM with HUVEC; 30 nM in [6]; 8 nM in [1]; 2100 nM in data set [2].
For the compound `COc1cc2c(Nc3c(F)cc(Br)cc3F)ncnc2cc1OCC1CCNCC1`, the IC50 in [5] stood at 450 nM; in data set [10] it was 800 nM; in the data set on HUVEC it was 3000 nM; in [6] it was 70 nM; in data set [1], 15 nM; in data set [2] it was 1900 nM.
With `COCCOc1cc2ncnc(Nc3ccc(Cl)cc3F)c2cc1OC`, the concentration at 24 h in [3] is below 100 nM. Besides, in [4], the concentration at 6 h was found to be 12000 nM. In addition, the values for the IC50 (in [5]; with HUVEC; in data set [6]) were 100 nM, 5000 nM and 40 nM, respectively.
With `COc1cc2c(Nc3ccc(C#N)cc3F)ncnc2cc1OC/C=C/CN1CCCC1`, the IC50 worked out at 800 nM in data set [5]; 3900 nM in data set [10]; 10000 nM with HUVEC; 500 nM in data set [6]; 230 nM in [1]; 19000 nM in data set [2].
Consider `COc1cc2c(Nc3ccc(C)cc3F)ncnc2cc1OCC1CCNCC1`, for which the IC50 in data set [5] is 500 nM; in data set [10] it was 700 nM; with HUVEC, above 5000 nM; in data set [6] it was 250 nM; in data set [1] it was 30 nM; in data set [2] it was 12300 nM.
On to `COc1cc2c(Nc3ccc(Cl)cc3F)ncnc2cc1OC1CCN(C)CC1`, for which the results for the IC50 in [10] and in data set [2] were 1500 nM and 50000 nM, respectively.
Regarding `COc1cc2c(Nc3ccc(Cl)cc3F)ncnc2cc1OC[C@@H]1CCCN(C)C1`, the IC50 was found to be 100 nM in data set [5]; 700 nM in data set [10]; 5000 nM in the data set with HUVEC; 80 nM in [6]; 5 nM in data set [1]; 1800 nM in data set [2].
As for `COc1cc2c(Nc3cc(O)c(C)cc3F)ncnc2cc1OCC1CCN(C)CC1.Cl`, the IC50 in [5] was 300 nM; in [10], 25 nM; with HUVEC it was 800 nM; in data set [6] it was 30 nM; in [1] it was 7 nM; in data set [2], 1500 nM.
`COc1cc2c(Nc3c(F)cc(Br)cc3F)ncnc2cc1OCC1CCN(C)CC1`: the IC50 in [5] was 300 nM; in data set [10], 500 nM; in the data set on HUVEC, above 1000 nM; in data set [6], 100 nM; in data set [1] it was 10 nM; in data set [2], 1500 nM.
For `COc1cc2c(Nc3ccc(Br)cc3F)ncnc2cc1OCCCN1CCN(C)CC1.Cl`, the IC50 in data set [5] is 100 nM; in data set [10], 550 nM; with HUVEC it was above 1000 nM; in data set [6], 30 nM; in [1], 9 nM; in data set [2], 2000 nM.
